Target: rat mGlu2 (Rattus norvegicus (Rat), UniProt P31421)
Assay: mGlu2 Ca2+ flux assay
Assay type: cell-based
Settings: for IC50: Gα15 HEK293 cells stably expressing rat mGlu2, glutamate EC80, >10,000 = no plateau, >30,000 = no measurable activity; for remaining activity at 30 µM: amplitude of response in the presence of 30 μM test compound as percentage of maximal response to glutamate, read-out: rat mGlu2 Glu max
Experimental: Gα15 HEK293 cells stably expressing rat mGlu2 were plated in black-walled, clear-bottomed, poly-D-lysine coated 384-well plates in 20 μL of assay medium (DMEM containing 10% dialyzed FBS, 20 mM HEPES, and 1 mM sodium pyruvate) at a density of 12K cells/well. The cells were grown overnight at 37° C. in the presence of 5% CO2. The next day, medium was removed and the cells incubated with 20 μL of 2.3 μM Fluo-4, AM prepared as a 2.3 mM stock in DMSO and mixed in a 1:1 ratio with 10% (w/v) pluronic acid F-127 and diluted in assay buffer (Hank's balanced salt solution, 20 mM HEPES, and 2.5 mM probenecid) for 45 minutes at 37° C. Dye was removed, 20 μL of assay buffer was added, and the plate was incubated for 5 minutes at room temperature.
Ca^2+ flux was measured using the Functional Drug Screening System (FDSS7000, Hamamatsu, Japan). After establishment of a fluorescence baseline for about 3 seconds, the compounds of the present invention were added to the cells, and the response in cells was measured. 2.3 minutes later an EC20 concentration of the mGlu2 receptor agonist glutamate was added to the cells, and the response of the cells was measured for 1.9 minutes; an EC80 concentration of agonist was added and readings taken for an additional 1.7 minutes. All test compounds were dissolved and diluted to a concentration of 10 mM in 100% DMSO. Compounds were then serially diluted 1:3 in DMSO into 10 point concentration response curves, transferred to daughter plates, and further diluted into assay buffer to a 2× stock. Calcium fluorescence measures were recorded as fold over basal fluorescence; raw data was then normalized to the maximal response to glutamate. Antagonism of the agonist response of the mGlu2 receptor in the present invention was observed as a decrease in response to nearly maximal concentrations of glutamate in the presence of compound compared to the response to glutamate in the absence of compound.
The raw data file containing all time points was used as the data source in the analysis template. This was saved by the FDSS as a tab-delimited text file. Data were normalized using a static ratio function (F/F0) for each measurement of the total 360 values per well divided by each well's initial value. Data were then reduced to peak amplitudes (Max−Initial Min) using a time range that starts approximately 3 seconds prior to the glutamate EC80 addition and continues for approximately 90 seconds. This is sufficient time to capture the peak amplitude of the cellular calcium response. Individual amplitudes were expressed as % ECMax by multiplying each amplitude by 100 and then dividing the product by the mean of the amplitudes derived from the glutamate ECMax-treated wells. IC50 values for test compounds were generated by fitting the normalized values versus the log of the test compound concentration (in mol/L) using a 4 parameter logistic equation where none of the parameters were fixed. Each of the three values collected at each concentration of test compound were weighted evenly.
For NAMs, potency (IC50) and maximum response (% Glu Max), i.e. the amplitude of response in the presence of 30 μM test compound as a percentage of the maximal response to glutamate, are reported. […] Compounds with no measurable activity are designated as “>30,000 nM” since the top concentration of compound tested in the assay is 30 μM.

Chain of rat mGlu2 (P31421 19-872): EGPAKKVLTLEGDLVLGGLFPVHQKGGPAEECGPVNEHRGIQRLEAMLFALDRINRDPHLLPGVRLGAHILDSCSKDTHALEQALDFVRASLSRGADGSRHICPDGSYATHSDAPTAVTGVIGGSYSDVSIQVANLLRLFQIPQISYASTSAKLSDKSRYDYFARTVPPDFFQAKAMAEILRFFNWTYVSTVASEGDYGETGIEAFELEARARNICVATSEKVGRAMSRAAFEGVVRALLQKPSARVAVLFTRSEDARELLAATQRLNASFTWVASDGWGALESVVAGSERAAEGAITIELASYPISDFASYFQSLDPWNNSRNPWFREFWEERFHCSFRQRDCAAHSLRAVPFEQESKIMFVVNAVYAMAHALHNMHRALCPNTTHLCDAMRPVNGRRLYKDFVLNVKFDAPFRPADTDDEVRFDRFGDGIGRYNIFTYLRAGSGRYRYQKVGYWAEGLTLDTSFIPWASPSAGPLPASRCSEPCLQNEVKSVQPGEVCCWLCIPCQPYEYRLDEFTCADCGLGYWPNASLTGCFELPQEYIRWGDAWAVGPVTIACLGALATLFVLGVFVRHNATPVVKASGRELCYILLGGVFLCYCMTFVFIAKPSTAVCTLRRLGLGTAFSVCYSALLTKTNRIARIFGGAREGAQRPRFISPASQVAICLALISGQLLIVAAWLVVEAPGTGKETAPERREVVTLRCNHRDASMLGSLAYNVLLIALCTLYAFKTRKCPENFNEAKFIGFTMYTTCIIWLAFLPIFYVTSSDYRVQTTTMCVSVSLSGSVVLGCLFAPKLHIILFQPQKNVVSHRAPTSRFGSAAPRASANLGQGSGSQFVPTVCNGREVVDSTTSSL

Compound	IC50	remaining activity at 30 µM
N#Cc1cc(-c2ccc(F)cc2)c(OCc2ccc(Cl)nc2)cn1 [Compound 7, 5-((6-Chloropyridin-3-yl)methoxy)-4-(4-fluorophenyl)picolinonitrile]	> 30 µM	
N#Cc1cc(F)cc(COc2cnc(C(N)=O)cc2-c2ccc(F)cc2)c1 [Compound 146, 5-((3-cyano-5-fluorobenzyl)oxy)-4-(4-fluorophenyl)picolinamide]	0.944 µM	0.48%
N#Cc1cccc(OCCOc2cnc(C(N)=O)cc2-c2ccc(F)cc2)c1 [Compound 152, 5-(2-(3-cyanophenoxy)ethoxy)-4-(4-fluorophenyl)picolinamide]	1.22 µM	1.44%
NC(=O)c1cc(-c2ccc(C(F)(F)F)nc2)c(OCc2cc(F)cc(F)c2)cn1 [Compound 32, 5′-((3,5-difluorobenzyl)oxy)-6-(trifluoromethyl)[3,4′-bipyridine]-2′-carboxamide]	> 10 µM	35.1%
NC(=O)c1cc(-c2ccc(F)cc2)c(OCCOc2ccc(C(F)(F)F)nc2)cn1 [Compound 115, 4-(4-fluorophenyl)-5-(2-((6-(trifluoromethyl)pyridin-3-yl)oxy)ethoxy)picolinamide]	1.31 µM	3.64%
NC(=O)c1cc(-c2ccc(F)cc2)c(OC2CCN(c3ccnc(C(F)(F)F)c3)C2)cn1 (stereo not drawn) [Compound 57, 4-(4-fluorophenyl)-5-((1-(2-(trifluoromethyl)pyridin-4-yl)pyrrolidin-3-yl)oxy)picolinamide]	2.12 µM	2.39%
NC(=O)c1cc(-c2ccc(F)cc2)c(OCCOc2ccnc(F)c2)cn1 [Compound 117, 4-(4-fluorophenyl)-5-(2-((2-fluoropyridin-4-yl)oxy)ethoxy)picolinamide]	0.615 µM	1.02%
COc1ccc(COc2cnc(C(N)=O)cc2-c2ccc(F)cc2)cn1 [Compound 42, 4-(4-fluorophenyl)-5-((6-methoxypyridin-3-yl)methoxy)picolinamide]	0.266 µM	2.2%
N#Cc1cc(-c2ccc(F)cc2)c(OCCc2cccnc2)cn1 [Compound 23, 4-(4-fluorophenyl)-5-(2-(pyridin-3-yl)ethoxy)picolinonitrile]	> 30 µM	
NC(=O)c1cc(-c2ccc(F)cc2)c(OCc2ccc(Cl)nc2)cn1 [Compound 8, 5-((6-chloropyridin-3-yl)methoxy)-4-(4-fluorophenyl)picolinamide]	0.429 µM	2%
N#Cc1cncc(OCCOc2cnc(C(N)=O)cc2-c2ccc(F)cc2)c1 [Compound 157, 5-(2-((5-cyanopyridin-3-yl)oxy)ethoxy)-4-(4-fluorophenyl)picolinamide]	0.691 µM	4.33%
Cc1ccc(COc2cnc(C(N)=O)cc2-c2ccc(C(F)(F)F)nc2)cn1 [Compound 84, 5′-((6-methylpyridin-3-yl)methoxy)-6-(trifluoromethyl)-[3,4′-bipyridine]-2′-carboxamide]	> 30 µM	
N#Cc1cc(-c2ccc(F)cc2)c(OCCOc2cccnc2)cn1 [Compound 25, 4-(4-fluorophenyl)-5-(2-(pyridin-3-yloxy)ethoxy)picolinonitrile]	> 10 µM	39%
C[C@@H]1CN(Cc2cnc(C(N)=O)cc2-c2ccc(F)cc2)C[C@H](C)O1 [Compound 79, 5-(((cis)-2,6-dimethylmorpholino)methyl)-4-(4-fluorophenyl)picolinamide]	0.987 µM	0.52%
NC(=O)c1cc(-c2ccc(F)cc2)c(COc2ccc(C(F)(F)F)nc2)cn1 [Compound 91, 4-(4-fluorophenyl)-5-(((6-(trifluoromethyl)pyridin-3-yl)oxy)methyl)picolinamide]	0.639 µM	0.51%
N#Cc1cc(-c2ccc(F)cc2)c(OCCCN2CCOCC2)cn1 [Compound 71, 4-(4-fluorophenyl)-5-(3-morpholinopropoxy)picolinonitrile]	> 30 µM	

Compound	IC50	remaining activity at 30 µM
N#Cc1ccc(F)c(COc2cnc(C(N)=O)cc2-c2ccc(F)cc2)c1 [Compound 147, 5-((5-cyano-2-fluorobenzyl)oxy)-4-(4-fluorophenyl)picolinamide]	0.313 µM	0.73%
CC1(C)CN(CCCOc2cnc(C#N)cc2-c2ccc(F)cc2)CCO1 [Compound 73, 5-(3-(2,2-dimethylmorpholino)propoxy)-4-(4-fluorophenyl)picolinonitrile]	> 30 µM	
NC(=O)c1cc(-c2ccc(F)cc2)c(NCC2CCOCC2)cn1 [Compound 132, 4-(4-fluorophenyl)-5-(((tetrahydro-2H-pyran-4-yl)methyl)amino)picolinamide]	1.05 µM	-1.48%
CN(CCOCc1cncc(F)c1)c1cnc(C(N)=O)cc1-c1ccc(F)cc1 [Compound 131, 4-(4-fluorophenyl)-5-((2-((5-fluoropyridin-3-yl)methoxy)ethyl)(methyl)amino)picolinamide]	5.77 µM	2.62%
NC(=O)c1cc(-c2ccc(F)cc2)c(OCCCOc2ccnc(C(F)(F)F)c2)cn1 [Compound 127, 4-(4-fluorophenyl)-5-(3-((2-(trifluoromethyl)pyridin-4-yl)oxy)propoxy)picolinamide]	1.59 µM	2.03%
CC1(C)CN(Cc2cnc(C(N)=O)cc2-c2ccc(F)cc2)CCO1 [Compound 78, 5-((2,2-dimethylmorpholino)methyl)-4-(4-fluorophenyl)picolinamide]	0.531 µM	-0.32%
NC(=O)c1cc(-c2ccc(F)cc2)c(OCCOc2ccc(F)c(Br)c2)cn1 [Compound 103, 5-(2-(3-bromo-4-fluorophenoxy)ethoxy)-4-(4-fluorophenyl)picolinamide]	> 10 µM	53.7%
CC1(C)CN(CCCOc2cnc(C(N)=O)cc2-c2ccc(F)cc2)CCO1 [Compound 98, 5-(3-(2,2-dimethylmorpholino)propoxy)-4-(4-fluorophenyl)picolinamide]	3.25 µM	0.97%
NC(=O)c1cc(-c2ccc(F)cc2)c(OCCOc2cccnc2)cn1 [Compound 54, 4-(4-fluorophenyl)-5-(2-(pyridin-3-yloxy)ethoxy)picolinamide]	1.37 µM	1.35%
CN(CCOc1cnc(C(N)=O)cc1-c1ccc(F)cc1)c1ccnc(C(F)(F)F)c1 [Compound 55, 4-(4-fluorophenyl)-5-(2-(methyl(2-(trifluoromethyl)pyridin-4-yl)amino)ethoxy)picolinamide]	1.58 µM	4.02%
CC(CN1CCOCC1)Nc1cnc(C#N)cc1-c1ccc(F)cc1 (stereo not drawn) [Compound 4, 4-(4-fluorophenyl)-5-((1-morpholinopropan-2-yl)amino)picolinonitrile]	> 10 µM	46.6%
NC(=O)c1cc(-c2ccc(F)cc2)c(OCc2cc(F)cc(Br)c2)cn1 [Compound 37, 5-((3-bromo-5-fluorobenzyl)oxy)-4-(4-fluorophenyl)picolinamide]	1.47 µM	3.54%
N#Cc1cccc(COc2cnc(C#N)cc2-c2ccc(F)cc2)c1 [Compound 11, 5-((3-cyanobenzyl)oxy)-4-(4-fluorophenyl)picolinonitrile]	7.11 µM	29.9%
Cc1ccc(OC(C)COc2cnc(C#N)cc2-c2ccc(F)cc2)cn1 (stereo not drawn) [Compound 62, 4-(4-fluorophenyl)-5-(2-((6-methylpyridin-3-yl)oxy)propoxy)picolinonitrile]	4.63 µM	35.8%
N#Cc1cc(-c2ccc(F)cc2)c(OCCCOc2cccnc2)cn1 [Compound 65, 4-(4-fluorophenyl)-5-(3-(pyridin-3-yloxy)propoxy)picolinonitrile]	> 10 µM	68.8%

Reference: patent US10538491B2, “4,5-substituted picolinamide and picolinonitrile metabotropic glutamate receptor 2 negative allosteric modulators” (Vanderbilt University, priority 2015, dated 2020)
